Patent US20170362283A1, “NISIN-BASED COMPOUNDS AND USE THEREOF IN THE TREATMENT OF BACTERIAL INFECTIONS” (UNIVERSITEIT UTRECHT HOLDING B.V., priority 2015, published 2017)

Assays:
B. subtilis = settings: duplicate experiments
S. aureus = settings: duplicate experiments
E. coli = settings: duplicate experiments
E. faecium E980 = assay: BioScreen growth assay for E. faecium E980; type: cell-based; settings: 5 μM
Protocol: A BioScreen C instrument (Oy Growth Curves AB, Helsinki, Finland) was used to monitor effects of the compounds (6), (10), and (12) and the effect of compound (24) with R1-group (e), or Comparative compound B (nisin) on E. faecium growth (each compound administered at a fixed concentration 5 μM). E. faecium strains were inoculated at an initial OD660 of 0.05 into 300 μl TSB containing 1% DMSO and 1% glucose or into the same medium containing the antibiotic compounds at a final concentration of 5 μM. […]
The E. faecium strains used in these experiments are E. faecium E745 (vancomycin-ampicillin resistant hospital outbreak strain), E. faecium E980 (vancomycin-ampicillin susceptible human commensal isolate), E. Faecium E1133 (vancomycin-ampicillin resistant hospital outbreak strain), and E. faecium E1162 (vancomycin-susceptible ampicillin-resistant clinical isolate). The BioScreen growth assays for each strain was determined for the compounds (6), (10), (12) and also for compound (24) with R1-group (e) as well as nisin (Comparative compound B) and compared to non-treated strains, the results being shown in the Tables 9 to 12 below.

**Q.** With nisin [Compound B] as the substance, how does the “MIC values B. subtilis” value (B. subtilis) read?
**A.** The value was 0.625 to 2.5 µg/mL.

**Q.** And the “MIC values S. aureus” value (S. aureus)?
**A.** The value was 10 µg/mL.

**Q.** What about the “MIC values E. coli” value (E. coli) of the same substance?
**A.** Its value is over 10 µg/mL.

**Q.** And the OD600 (E. faecium E980; time 0 h)?
**A.** The OD600 was 0.016.

**Q.** And the OD600 (E. faecium E980; time 4 h)?
**A.** The OD600 was 0.01167.

**Q.** What about the OD600 (E. faecium E980; time 8 h) of the same substance?
**A.** Its OD600 is 0.011.

**Q.** What about the OD600 (E. faecium E980; time 12 h) of the same substance?
**A.** Its OD600 is 0.011.

**Q.** And the OD600 (E. faecium E980; time 16 h)?
**A.** The OD600 was 0.01067.
